Assay results as given in patent publication US11369609B2, “Small molecule Wnt inhibitor as treatment for dyslipidemia” (Yale University, priority 2019, dated 2022).

Experiments:
[1] = system: kidney endothelial cells; assay: Fatty acid oxidation (14CO2 release from [14C]palmitate) in isolated kidney endothelial cells; assay type: in vivo, mice; details: for FAO, as measured by 14CO2 release: diabetic CD-1 mice treated for 4 weeks
Experimental: Endothelial cells from the kidneys of non-diabetic and diabetic mice were isolated using a standardized kit (Miltenyl Biotech, USA) by following the manufacturer's instructions. Briefly, kidneys were isolated and minced into small pieces. Using a series of enzymatic reactions by treating the tissue with trypsin and Collagenase type I solution, a single cell suspension was created. The pellet was dissolved with CD31 magnetic beads and the CD31-labelled cells were separated on a magnetic separator. The cells were further purified on a column. Cell number was counted by hemocytometer and cells were plated on 0.1% gelatin coated Petri dishes.
Cultured isolated kidney endothelial cells were incubated with medium containing 0.75 mmol/L palmitate (conjugated to 2% free fatty acid-free BSA/[^14C] palmitate at 2 μCi/mL) for 2 h. One mL of the culture medium was transferred to a sealable tube, the cap of which housed a Whatman filter paper disc. ^14CO2 trapped in the media was then released by acidification of media using 60% perchloric acid. Radioactivity that had become adsorbed onto the filter discs was then quantified by liquid scintillation counting.
It is increasingly recognized that defects in central metabolism contribute to kidney fibrosis (69, 76). Defective FA metabolism in EC leads to EndMT events (77). To investigate whether FA metabolism was deranged in the model, radiolabeled [^14C]palmitate uptake experiments were performed in isolated EC from mouse kidneys. FA uptake was higher in isolated EC from the diabetic kidneys of the more fibrotic strain (diabetic CD-1) when compared to kidney EC from the less-fibrotic strain (diabetic C57BL/6). […] FA oxidation (FAO) was also assessed by measuring the ^14CO2 release from radiolabeled [^14C]palmitate in cultured EC isolated from kidneys. […] In the next set of experiments, diabetic CD-1 mice were treated with the FA synthase inhibitor C75, the FAO inhibitor etomoxir, the PPARα agonist fenofibrate, and the cholesterol-lowering drug simvastatin for 4 weeks. […] (FIG. 23A). Fenofibrate and C75 restored the level of GR protein in CD31 positive cells, whereas etomoxir and simvastatin suppressed it (FIG. 23B).

[2] = system: diabetic CD-1 mice; assay: FA metabolism modulators and simvastatin in diabetic CD-1 mice (renal fibrosis); assay type: in vivo; details: for fibrogenic phenotype / level of fibrosis in kidneys / fibronectin mRNA level in diabetic kidneys / level of GR protein in CD31 positive cells / αSMA mRNA level in diabetic kidneys: diabetic CD-1 mice treated for 4 weeks; for CPT1a level / β-catenin level: diabetic CD-1 mice, kidney immunohistochemistry
Experimental: (§1) All experiments were performed in accordance with the National Institute of Health (NIH) Guidelines for the Care of Laboratory Animals. Mice lacking the endothelial glucocorticoid receptor (GR) (known as GR^ECKO) and those lacking this receptor on the Apo E null background (DKO) were generated as previously described (6). The induction of diabetes in CD-1 mice and C57B/L6 mice was performed according to previously established experimental protocols (38-42). Briefly, diabetes was induced in 10-week-old GR^ECKO mice with five consecutive intraperitoneal (IP) doses of streptozotocin (STZ) 50 mg/kg in 10 mmol/L citrate buffer (pH 4.5). Wnt inhibitor (LGK974) was provided to GR^ECKO and control littermate at 5 mg/kg at a frequency of six doses per week for 8 weeks (43). Etomoxir (20 mg/kg) and c75 (15 mg/kg) were dosed (ip) three times per week for 3 weeks in the GR^ECKO and control littermate. A single IP dose of 200 mg/kg STZ was used to induce diabetes in CD-1 mice. Fenofibrate (100 mg/kg), simvastatin (40 mg/kg), were dosed orally for 4 weeks in diabetic CD-1 mice. All mice were sacrificed after 4 weeks of treatment and tissues and blood were harvested. Urine albumin levels were assayed using a Mouse Albumin ELISA Kit (Exocell, Philadelphia, Pa.).
(§2) A point-counting method was utilized to evaluate the relative area of the mesangial matrix. PAS-stained glomeruli from each mouse were analyzed using a digital microscope screen grid containing 540 (27×20) points. Masson's trichrome-stained images were evaluated by ImageJ software, and the fibrotic areas were estimated.
(§3) Deparaffinized sections were incubated with picrosirius red solution for 1 hour at room temperature. The slides were washed twice with acetic acid solution for 30 seconds per wash. The slides were then dehydrated in absolute alcohol three times, cleared in xylene, and mounted with a synthetic resin. Sirius red staining was analyzed using ImageJ software, and fibrotic areas were quantified.
(§4) Paraffin-embedded kidney sections (5 μm thick) were deparaffinized and rehydrated (2 min in xylene, four times; 1 min in 100% ethanol, twice; 1 min in 95% ethanol; 45 s in 70% ethanol; and 1 min in distilled water), and the antigen was retrieved in a 10 mM citrate buffer pH 6 at 98° C. for 60 min. To block the endogenous peroxidase, all sections were incubated in 0.3% hydrogen peroxide for 10 min. The immunohistochemistry was performed using a Vectastain ABC Kit (Vector Laboratories, Burlingame, Calif.). Mouse anti-[…] antibody (1:100) and CPT1a (Abnova; H00001374-DO1P; 1:100) antibody was used. In the negative controls, the primary antibody was omitted and replaced with the blocking solution.
Frozen kidney sections (5 μm) were used for immunofluorescence; double positive labeling with CD31/αSMA, CD31/TGFβR1 and E-cadherin/αSMA was measured. Briefly, frozen sections were dried and placed in acetone for 10 min at −30° C. Once the sections were dried, they were washed twice in phosphate-buffered saline (PBS) for 5 min and then blocked in 2% bovine serum albumin/PBS for 30 min at room temperature. Thereafter, the sections were incubated in primary antibody (1:100) for 1 hour and washed in PBS (5 min) three times. Next, the sections were incubated with the secondary antibodies for 30 min, washed with PBS three times (5 min each), and mounted with mounting medium with DAPI (Vector Laboratories, Burlingame, Calif.). The immune-labeled sections were analyzed by fluorescence microscopy. For each mouse, original magnification of ×400 pictures were obtained from six different areas, and quantification was performed.
(§5) Total RNA was isolated using standard Trizol protocol. RNA was reverse transcribed using the iScript cDNA Synthesis kit (Bio-Rad) and qPCR was performed on a Bio-Rad C1000 Touch thermal cycler using the resultant cDNA, as well as qPCR Master mix and gene specific primers.
It is increasingly recognized that defects in central metabolism contribute to kidney fibrosis (69, 76). […]

[3] = system: diabetic GR^ECKO mice and control littermates; assay: Etomoxir and C75 in diabetic control littermates and diabetic GR^ECKO mice; assay type: in vivo; details: for body weight: diabetic control littermates and GR^ECKO mice, ip three times per week for 3 weeks
Experimental: as §1, §2, §3, §4
Etomoxir and C75 were also tested in the diabetic control littermates and diabetic GR^ECKO mice. […] (FIG. 17D-E).

[4] = system: canonical Wnt signaling pathway; assay: qPCR of canonical Wnt-dependent genes in Wnt3a-treated MLECs; assay type: cell-based, mouse
Experimental: as §5, with “ChIP DNA or total RNA was used for qPCR. Total” for “Total”, “cDNA,” for “cDNA, as well as”, “master” for “Master”, “primers. The following primers were used: […]” for “primers.”
MLECS were cultured and starved for 4 hours in 0.5% FBS. Cells were treated for 4 hours with Wnt3a (200 ng/ml).
To further examine the specificity of GR in this interaction, a similar experiment in GR siRNA-treated cells was performed.

[5] = Wnt3a-conditioned media 6 hours, then DEX 100 nM 1 hour

| Molecule | FAO, as measured by 14CO2 release [1] | FAO in kidney EC ([1]; diabetic GR^ECKO mice) | FAO in kidney EC ([1]; diabetic control littermates) | fibrogenic phenotype / level of fibrosis in kidneys [2] | fibronectin mRNA level in diabetic kidneys [2] | level of GR protein in CD31 positive cells [2] | αSMA mRNA level in diabetic kidneys [2] | CPT1a level [2] | β-catenin level [2] | body weight [3] | CPT1a level in kidneys ([3]; diabetic control mice) | level of β-catenin in kidneys ([3]; diabetic control mice) | renal fibrogenic phenotype ([3]; diabetic control mice) | further results |
| --- | --- | --- | --- | --- | --- | --- | --- | --- | --- | --- | --- | --- | --- | --- |
| C=C1C(=O)OC(CCCCCCCC)C1C(=O)O (stereo not shown) [C75] | increased the level of FAO | unable to rescue the level of FAO | restored FAO | ameliorated the fibrogenic phenotype | downregulated | restored | downregulated | induced the level of CPT1a | suppressed the level of β-catenin | no significant differences | restored CPT1a | completely diminished the level of β-catenin | clearly abolished the renal fibrogenic phenotype | – |
| C[C@@H]1C[C@H]2[C@@H]3CCC4=CC(=O)C=C[C@]4(C)[C@@]3(F)[C@@H](O)C[C@]2(C)[C@@]1(O)C(=O)COP(=O)(O)O [DEX, Dexamethasone phosphate] | – | – | – | – | – | – | – | – | – | – | – | – | – | sox17 expression, control siRNA vs GR siRNA cells ([4]; Wnt3a 200 ng/ml 4 hours, DEX 100 nM 1 hour): suppressed sox17 expression to a much greater extent in control-siRNA treated cells than in GR siRNA-treated cells; axin2 expression [4, 5]: a similar pattern was observed; sox17 expression [4, 5]: suppressed expression |
| CCOC(=O)[C@@]1(CCCCCCOc2ccc(Cl)cc2)CO1 [etomoxir] | significant suppression | significant suppression in FAO | significant suppression in FAO | exacerbated the fibrosis | upregulated | suppressed | upregulated | significant suppression | induced | no significant differences | suppressed the CPT1a level | increased the expression level of β-catenin | accelerated the renal fibrogenic phenotype | CPT1a level in kidneys ([3]; diabetic GR^ECKO mice): suppressed the CPT1a level; level of β-catenin in kidneys ([3]; diabetic GR^ECKO mice): increased the expression level of β-catenin; renal fibrogenic phenotype ([3]; diabetic GR^ECKO mice): accelerated the renal fibrogenic phenotype |
| Wnt3a | – | – | – | – | – | – | – | – | – | – | – | – | – | sox17 expression, effect of Wnt3a in GR siRNA-treated cells ([4]; Wnt3a 200 ng/ml 4 hours, GR knockdown): augmented; sox17 expression, effect of Wnt3a ([4]; Wnt3a-conditioned media, MLECs): induced |
